Laboratory results: paper PMC11078216, “Discovery of potent and selective activity-based probes (ABPs) for the deubiquitinating enzyme USP30” (RSC Chemical Biology, 2024)

Molecular target: T1, USP30 (Homo sapiens, UniProt Q70CQ3)
T1 construct: We next determined cellular engagement of endogenous USP30 with IMP-2587 or IMP-2586; endogenous in cells; host or cells: HEK293T
T1 sequence (Q70CQ3 1-517): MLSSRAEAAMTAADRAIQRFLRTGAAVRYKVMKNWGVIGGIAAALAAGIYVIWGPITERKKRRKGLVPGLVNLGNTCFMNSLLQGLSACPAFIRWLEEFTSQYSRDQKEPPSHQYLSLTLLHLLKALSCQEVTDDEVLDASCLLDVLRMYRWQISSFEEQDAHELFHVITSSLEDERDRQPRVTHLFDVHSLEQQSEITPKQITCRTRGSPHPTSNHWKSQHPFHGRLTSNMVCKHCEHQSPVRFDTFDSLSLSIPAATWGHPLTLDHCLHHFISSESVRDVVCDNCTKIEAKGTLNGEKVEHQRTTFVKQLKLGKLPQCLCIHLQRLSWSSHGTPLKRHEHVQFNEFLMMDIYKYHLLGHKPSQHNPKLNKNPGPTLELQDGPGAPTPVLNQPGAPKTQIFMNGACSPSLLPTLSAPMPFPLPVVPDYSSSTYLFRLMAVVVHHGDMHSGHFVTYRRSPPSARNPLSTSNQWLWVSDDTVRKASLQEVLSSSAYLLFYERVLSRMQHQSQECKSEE
Assay: Biotin pulldown (Neutravidin enrichment) and immunoblotting for USP30
Type: cell-based
Details: HEK293T, 1 h; for extent of USP30 engagement and enrichment: 100 nM probe, pulldown; for probe concentration at which USP30 was enriched (pulldown) / probe concentration of maximal USP30 enrichment (pulldown): biotin pulldown and immunoblotting
Description: We next determined cellular engagement of endogenous USP30 with IMP-2587 or IMP-2586. […] In-cell concentration-dependent competition by IMP-2587 and IMP-2586 for USP30 were confirmed below 100 nM probe (Fig. 2b and c), whilst engagement of an exemplar unrelated DUB, UCHL1, occurred only at a much higher concentration (30 000 nM). We hypothesise that incomplete modification of USP30 by HA-Ub-VME is likely due to limited retention of USP30 activity in cell lysates, which have likely had the USP30 transmembrane domain compromised, highlighting the potential utility of a small molecule USP30 ABP applicable directly in intact cells. Direct USP30 target engagement by IMP-2587 and IMP-2586 was confirmed in HEK293T cells following 1 h probe treatment followed by cell lysis and CuAAC bio-orthogonal ligation to capture reagent azido-TAMRA-biotin (AzTB) for IMP-2587 or alkyne-TAMRA-biotin for IMP-2586 (Fig. 3a).[27] […] This unspecific background labelling is presumably due to the previously reported higher off-target CuAAC reactivity of an alkyne-bearing capture reagent, applied here due to incorporation of an azide tag in IMP-2586.[28] Moreover, the labelling of USP30 was further confirmed by biotin pulldown and immunoblotting. […]
d) Live cell probe incubation, lysate click chemistry and precipitation 6-well HEK293T cells were incubated with media containing compounds ABP 2 and ABP 4 at indicated concentrations for 1 h at 37 °C. The cells were washed with PBS and lysed with lysis buffer (50 μL (1% (v/v) Triton X-100, 0.1% (w/v) sodium dodecyl sulfate (SDS), EDTA-free complete protease inhibitor cocktail (1×, Roche) in PBS on ice for 10 min. The lysates were scraped and transferred to corresponding Lo-Bind Eppendorfs. Each lysate was sonicated for 1 minute, and the samples centrifuges at 5,000 x g at 4 °C for 5 minutes to pellet insoluble cellular debris. The supernatant was collected, and protein concentration was determined using the DC Protein Assay (Bio-Rad) as per manufacturer’s instructions, and normalised to lowest concentrated sample (e.g. 1 mg/mL, using lysis buffer). The following “click mixture” was prepared separately, preparing 6 μL for every 100 μL of […]
Capture reagent (AzRB/AzT for ABP 2, YnT/YnB for ABP 4 10 mM in DMSO, 1 vol; final concentration […]
CuSO4 (50 mM in water, 2 vol; final concentration in reaction 1 mM)
TCEP (50 mM in water, 2 vol; final concentration in reaction 1 mM)
TBTA (10 mM in DMSO, 1 vol; final concentration in reaction 100 µM)
The click mixture was vortexed and incubated at room temperature for 2 min before 6 μL of the mixture was added to every 100 μL of lysate. The reaction mixtures were shaken at room temperature for 1 h before being quenched with EDTA (500 mM in H2O) to a final concentration of 10 mM.
Proteins were precipitated by adding H2O (1 vol), MeOH (2 vol) and CHCl3 (0.5 vol), vortexing briefly then centrifuging at 17,000 × g for 5 min. The top H2O/MeOH layer was discarded and the middle layer of protein pellet and lower CHCl3 layer retained. The suspension was washed with MeOH (300 μL), and sonicated to break up the pellet. The proteins were pelleted by centrifugation at 10,000–17000 × g for 5–10 min or until a compact pellet was formed. The protein pellet was washed once more with MeOH (1 mL). The pellet was resuspended by sonicating and completely dissolving in 1% (w/v) SDS in PBS (to 5 mg/mL protein) before being made up to 1 mg/mL protein with PBS.
The lysate samples (10-20 μg) were mixed with 4× Laemmli sample loading buffer (250 mM Tris -HCl pH 6.8, 30% (v/v) glycerol, 10% (w/v) SDS, 0.05% (w/v) bromophenol blue) supplemented with 20% v/v β-mercaptoethanol (BME) and boiled for 10 min at 95 °C. The resulting protein samples were separated according to the protocol in section 3.2.c. Gel were imaged on a Typhoon imager (GE Healthcare; λEx 532 nm, λEm 575 nm for TAMRA. For protein loading quantification, gels were stained with Coomassie blue staining solution overnight, rinsed with water and imaged on an ImageQuant™ […]

Row | SMILES | extent of USP30 engagement and enrichment | probe concentration at which USP30 was enriched (pulldown) [nM] | probe concentration of maximal USP30 enrichment (pulldown) [nM]
1 | C#Cc1cccc(-c2cc(NC(=O)CC3CCN(C#N)C3)on2)c1 (stereo not drawn) [IMP-2587] | almost complete engagement and enrichment | 10 | 100
2 | N#CN1CC[C@@H](NC(=O)c2cc(-c3ccccc3Oc3ccc(N=[N+]=[N-])cc3)n[nH]2)C1 [IMP-2586] | almost complete engagement and enrichment | 10 | 100
